Measurements taken from US20240156755A1, “USE OF RIP1 INHIBITOR OR MLKL INHIBITOR FOR TREATING OR PREVENTING HEREDITARY RETINAL DYSTROPHY” (TZU CHI UNIVERSITY, priority 2022, published 2024).
Entries after “also recorded” stand apart in the source; their conditions may differ.

Columns and labels:
[1] = tested on: Pomgnt1^L120R/L120R mice; assay: Scotopic ERG after treatment of Pomgnt1^L120R/L120R mice; assay type: in vivo; conditions: 6-month-old mice, 3 months after injection; compared with AAV8-GFP treated group; RIPA-56 10 mg/Kg twice a week IP; AAV 1 μL 1×10^9 vg subretinal
Experimental: To evaluate retinal function in vivo, ERG was recorded with various light stimulus intensities under dark-adapted scotopic condition. Scotopic ERG records rod photoreceptor (a-wave), signal from rod to rod bipolar cell (b-wave), and retinal pigment epithelium (c-wave). […] This reduction in ERG a-, b, and c-wave amplitude indicated the function of rod photoreceptor, rod bipolar cells post-synaptic signal and RPE were greatly affected in Pomgnt1^L120R/L120R mouse retina.

[2] = tested on: POMGNT1 knockout human RPE cells; assay: Immunoblotting of autophagy-related proteins and necroptosis markers; assay type: cell-based
[3] = tested on: POMGNT1 knockout human RPE cells; assay: Trans-epithelial electrical resistance (TEER) of RPE monolayers; assay type: cell-based; conditions: transwell culture
Experimental: The RPE is a polarized epithelial monolayer which lies between the photoreceptors and the choroid. The RPE is essential to keep neural retinal healthy by maintenance of many important functions including light absorption, trans-epithelial transport, phagocytosis, and secretion of growth factors. The feature of healthy RPE is the generation of a trans-epithelial electrical resistance by specific tight junctions between epithelial cells. Trans-epithelial electrical resistance (TEER) was determined in RPE monolayers in WT and POMGNT1 knockout cells using Millicell-ERS Voltmeter (MERS00002, EMD Millipore) with transwell culture to evaluate the cell monolayer integrity.
POMGNT1 knockout human RPE cell were treated with RIPA-56, a potent, selective RIP1 inhibitor or with GW806742X, a MLKL inhibitor.

| scotopic ERG a-, b-, and c-wave amplitudes [1] | Compound | expression of beclin1, p62 and LC3b [2] | phospho-RIP3 and phosphor-MLKL [2] | TEER level [3] |
| --- | --- | --- | --- | --- |
| significantly improved | CCC(C)(C)C(=O)N(O)Cc1ccccc1 [RIPA-56] | significantly decrease | inhibit | significant improvement; also recorded: improve |
| – | CN(c1ccc(NC(=O)Nc2ccc(OC(F)(F)F)cc2)cc1)c1ccnc(Nc2cccc(S(N)(=O)=O)c2)n1 [GW806742X] | – | – | significant improvement |
